Assay results taken from PubChem BioAssay AID330 (DTP/NCI, 2004).
Values joined by “and” are separate entries in the source; they are usually repeats but may differ in a detail not shown here. Equal entries are not always repeated. Inconclusive results and toxic doses are left out. Rule for the calls: active = survival T/C of 150% or more; inactive = T/C below 125% in these data. Peptide text beside a SMILES is read from it. * marks the point of attachment. OtBu = CC(C)(C)O*

Tested on: P388 leukemia ip, CD2F1 mice, survival T/C
Assay: NCI In Vivo Anticancer Drug Screen. Data for tumor model P388 Leukemia (intraperitoneal) in CD2F1 (CDF1) mice
Conditions: endpoint: median survival time, higher = longer survival
Method in brief: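 Mice carrying the transplanted tumor received test compound or vehicle. Survival was recorded in each group, and the value is the treated-group measurement divided by that of the vehicle-treated control group.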

[1] = dose: 50.0 mg/kg/injection, schedule: Q01DX005 (ip), vehicle: Klucel (hydroxypropylcellulose) (HPC)
[2] = dose: 100.0 mg/kg/injection, schedule: Q01DX005 (ip), vehicle: Klucel (hydroxypropylcellulose) (HPC)
[3] = dose: 200.0 mg/kg/injection, schedule: Q01DX005 (ip), vehicle: Klucel (hydroxypropylcellulose) (HPC)
[4] = dose: 50.0 mg/kg/injection, schedule: Q01DX005 (ip), vehicle: saline with Tween-80
[5] = dose: 100.0 mg/kg/injection, schedule: Q01DX005 (ip), vehicle: saline with Tween-80
[6] = dose: 200.0 mg/kg/injection, schedule: Q01DX005 (ip), vehicle: saline with Tween-80
[7] = dose: 25.0 mg/kg/injection, schedule: Q01DX009 (ip), vehicle: Klucel (hydroxypropylcellulose) (HPC)
[8] = dose: 50.0 mg/kg/injection, schedule: Q01DX009 (ip), vehicle: Klucel (hydroxypropylcellulose) (HPC)
[9] = dose: 100.0 mg/kg/injection, schedule: Q01DX009 (ip), vehicle: Klucel (hydroxypropylcellulose) (HPC)
[10] = dose: 200.0 mg/kg/injection, schedule: Q01DX009 (ip), vehicle: Klucel (hydroxypropylcellulose) (HPC)
[11] = dose: 100.0 mg/kg/injection, schedule: Q04DX003 (ip), vehicle: saline with Tween-80
[12] = dose: 200.0 mg/kg/injection, schedule: Q04DX003 (ip), vehicle: saline with Tween-80
[13] = dose: 400.0 mg/kg/injection, schedule: Q04DX003 (ip), vehicle: saline with Tween-80
[14] = dose: 60.0 mg/kg/injection, schedule: Q01DX005 (ip), vehicle: saline with Tween-80
[15] = dose: 120.0 mg/kg/injection, schedule: Q01DX005 (ip), vehicle: saline with Tween-80
[16] = dose: 240.0 mg/kg/injection, schedule: Q01DX005 (ip), vehicle: saline with Tween-80
[17] = dose: 50.0 mg/kg/injection, schedule: Q01DX009 (ip), vehicle: saline with Tween-80
[18] = dose: 100.0 mg/kg/injection, schedule: Q01DX009 (ip), vehicle: saline with Tween-80

Measured: T/C

CC(C)CC(NC(=O)C(Cc1ccccc1)NC(=O)C1CCCN1)C(=O)OC(C)(C)C (stereo not drawn) (H-Pro-Phe-Leu-OtBu; configuration not given here)
inactive: [1] 102 % of control | [2] 94 % of control | [3] 94 % of control

Cc1cc(C)c2nc(C)c(C)[n+]([O-])c2c1
inactive: [4] 101 % of control | [5] 100 % of control | [6] 100 % of control

O=C1C=CC(=O)N1CC[P+](c1ccccc1)(c1ccccc1)c1ccccc1
inactive: dose: 0.78 mg/kg/injection, schedule: Q01DX009 (ip), vehicle: water 118 % of control | dose: 1.56 mg/kg/injection, schedule: Q01DX009 (ip), vehicle: water 102 % of control | dose: 3.13 mg/kg/injection, schedule: Q01DX009 (ip), vehicle: water 106 % of control | dose: 6.25 mg/kg/injection, schedule: Q01DX009 (ip), vehicle: water 105 % of control | dose: 12.5 mg/kg/injection, schedule: Q01DX009 (ip), vehicle: water 112 % of control | dose: 25.0 mg/kg/injection, schedule: Q01DX009 (ip), vehicle: water 112 % of control and 120 % of control

Cc1cc(C)c2c(c1)CC(C)(C)CC2(O)C1CCCCN1 (centres undefined)
inactive: [1] 100 % of control | [2] 108 % of control

CC(=O)Nc1ccc(S(=O)(=O)Oc2noc3ccc(Br)cc23)cc1
inactive: [1] 98 % of control | [2] 97 % of control | [3] 90 % of control

CC(=O)c1cccc(NC(=O)Nc2nccs2)c1
inactive: [7] 102 % of control | [8] 110 % of control | [9] 101 % of control | [10] 105 % of control

O=C(C[n+]1cc2ccccc2c2ccccc21)c1ccc(-c2ccccc2)cc1
inactive: dose: 6.25 mg/kg/injection, schedule: Q01DX005 (ip), vehicle: Klucel (hydroxypropylcellulose) (HPC) 104 % of control | dose: 12.5 mg/kg/injection, schedule: Q01DX005 (ip), vehicle: Klucel (hydroxypropylcellulose) (HPC) 104 % of control | dose: 25.0 mg/kg/injection, schedule: Q01DX005 (ip), vehicle: Klucel (hydroxypropylcellulose) (HPC) 110 % of control | [1] 105 % of control | [2] 109 % of control

C/C(=C\N1CCN(c2ccc(Cl)cc2)C(C)C1)C(=O)c1ccccc1 (centres undefined)
inactive: [11] 94 % of control | [12] 88 % of control

COc1ccc2c(c1)CC(C)[N+]([O-])=C2C(F)(F)F (centres undefined)
inactive: [4] 99 % of control | [5] 102 % of control | [6] 104 % of control

CCCCn1c(=S)sc2ccccc21
inactive: dose: 50.0 mg/kg/injection, schedule: Q04DX003 (ip), vehicle: saline with Tween-80 98 % of control | [11] 100 % of control | [12] 104 % of control | [13] 104 % of control

Nc1ccccc1C(=O)Nc1ccc(Cl)cc1Cl
inactive: [4] 104 % of control | [5] 92 % of control | [6] 92 % of control

CCOC(=O)/C(C#N)=C(O)\C(=C\c1ccc(Cl)cc1)NC(=O)c1ccc(NC(C)=O)cc1
inactive: [14] 108 % of control | [15] 97 % of control | [16] 97 % of control

CN(C)C1(c2ccc3ccccc3c2)CSC1
inactive: dose: 100.0 mg/kg/injection, schedule: Q01DX001 (ip), vehicle: saline with Tween-80 100 % of control | dose: 200.0 mg/kg/injection, schedule: Q01DX001 (ip), vehicle: saline with Tween-80 100 % of control | dose: 400.0 mg/kg/injection, schedule: Q01DX001 (ip), vehicle: saline with Tween-80 96 % of control

COC1/C=C/OC2(C)Oc3c(C)c(O)c4c(O)c(c(/C=N/N(C)C(C)C(O)c5ccccc5)c(O)c4c3C2=O)NC(=O)C(C)=C/C=C/C(C)C(O)C(C)C(O)C(C)C(OC(C)=O)C1C (centres undefined)
inactive: dose: 12.5 mg/kg/injection, schedule: Q01DX009 (ip), vehicle: saline with Tween-80 120 % of control | dose: 25.0 mg/kg/injection, schedule: Q01DX009 (ip), vehicle: saline with Tween-80 116 % of control | [17] 109 % of control and 116 % of control | [18] 111 % of control

O=C(Nc1ccc(Cc2ccc(NC(=O)Nc3nccs3)cc2)cc1)Nc1nccs1
inactive: dose: 12.5 mg/kg/injection, schedule: Q01DX009 (ip), vehicle: Klucel (hydroxypropylcellulose) (HPC) 100 % of control | [7] 100 % of control and 95 % of control | [8] 98 % of control and 91 % of control

CC(=O)[C@H]1CC[C@H]2[C@@H]3C[C@H](C)C4=CC(=O)CC[C@]4(C)[C@@]3(F)[C@@H](O)C[C@]12C
inactive: [11] 95 % of control | [12] 87 % of control | [13] 100 % of control

CCO/C=C1/N=C(COc2ccc(Cl)cc2C)OC1=O
inactive: [14] 101 % of control | [15] 108 % of control | [16] 95 % of control

COc1cc([N+](=O)[O-])c2nc(Cl)ccc2c1[N+](=O)[O-]
inactive: dose: 1.56 mg/kg/injection, schedule: Q01DX009 (ip), vehicle: other 96 % of control | dose: 3.13 mg/kg/injection, schedule: Q01DX009 (ip), vehicle: other 97 % of control | dose: 6.25 mg/kg/injection, schedule: Q01DX009 (ip), vehicle: other 104 % of control | dose: 12.5 mg/kg/injection, schedule: Q01DX009 (ip), vehicle: other 94 % of control | dose: 50.0 mg/kg/injection, schedule: Q01DX009 (ip), vehicle: other 99 % of control

O/N=C1\CN2CCC1CC2
inactive: dose: 50.0 mg/kg/injection, schedule: Q01DX005 (ip), vehicle: saline 110 % of control | dose: 100.0 mg/kg/injection, schedule: Q01DX005 (ip), vehicle: saline 105 % of control

Nc1ccc([N+](=O)[O-])c(N)n1
inactive: [11] 100 % of control | [12] 107 % of control | [13] 97 % of control

Cn1c2ccccc2c(=O)c2cc(NC(=O)CCCCCCCC(=O)Nc3ccc4c(c3)c(=O)c3ccccc3n4C)ccc21
inactive: [4] 92 % of control | [5] 97 % of control | [6] 101 % of control

N#CCCNc1ccc(NCCC#N)c2c1C(=O)c1c(O)ccc(O)c1C2=O
inactive: dose: 25.0 mg/kg/injection, schedule: Q04DX002 (ip), vehicle: saline with Tween-80 103 % of control | dose: 50.0 mg/kg/injection, schedule: Q04DX002 (ip), vehicle: saline with Tween-80 94 % of control | dose: 100.0 mg/kg/injection, schedule: Q04DX002 (ip), vehicle: saline with Tween-80 101 % of control | dose: 200.0 mg/kg/injection, schedule: Q04DX002 (ip), vehicle: saline with Tween-80 104 % of control

COC1C(Br)C(C)(OC)c2ccccc2N1C#N (centres undefined)
inactive: [8] 101 % of control | [9] 100 % of control | [10] 100 % of control

O=P(c1ccccc1)(c1ccccc1)c1ccccc1.O=P(c1ccccc1)(c1ccccc1)c1ccccc1.O=P(c1ccccc1)(c1ccccc1)c1ccccc1.O=P(c1ccccc1)(c1ccccc1)c1ccccc1.[Co+2].[O-][Cl+3]([O-])([O-])O
inactive: [17] 96 % of control | [18] 99 % of control
